From patent US20250197409A1, “BIFUNCTIONAL COMPOUND AND PHARMACEUTICAL COMPOSITION COMPRISING THE BIFUNCTIONAL COMPOUND, AND METHOD FOR TREATING ANDROGEN RECEPTOR RELATED DISEASE BY USING THE SAME” (ANHORN MEDICINES CO., LTD., priority 2022, published 2025)
Where two headings read alike, the source gives them in different places.

Biological target: T1, androgen receptor (Homo sapiens, UniProt P10275, T878A)
T1 construct: host or cells: LNCaP.FGC
Experiment: Androgen receptor degradation assay using Western blot analysis
Format: cell-based
Experimental: Cells not treated with any of the above-mentioned compounds are used as a negative control.
The internal loading control GAPDH was detected using a mouse monoclonal antibody (1:5000) (GTX627408, GeneTex International Corp., HsinChu City, Taiwan R.O.C.) and a goat anti-mouse HRP-conjugated secondary antibody (1:5000 dilution) (C04001, Croyez Bioscience Co., Ltd., Taipei City, Taiwan R.O.C.).
AR remaining percentage was determined by the intensity difference of AR signals (each was normalized by the corresponding internal loading control GAPDH) between the protein samples from the untreated cells (100%) and those from the treated cells. “Cpd. #” indicates the compound number hereinabove.
In addition, several compounds were selected to prepare a treatment stock solutions at 100 nM in RPMI medium. The treatment stock solutions were separately serially diluted (10×) with RPMI medium for treating LNCaP.FGC cells seeded with 2×10^5 cells per well in 24-well tissue culture plates. A calibration curve was determined by the serial diluted samples for each compound, and the concentration needed for 50% AR degradation (AR DC50) for each compound was calculated.

[1] = 24 h, read-out: Androgen Receptor Remaining (%), LNCaP.FGC cells, 100 nM, 24 hr, normalized to GAPDH, untreated cells = 100%
[2] = read-out: AR DC50 (concentration needed for 50% AR degradation); LNCaP.FGC cells, serial 10x dilutions from 100 nM
[3] = 24 h, LNCaP.FGC cells, 100 nM, 24 hr, normalized to GAPDH, untreated cells = 100%; read-out: Androgen Receptor Remaining (%)
[4] = LNCaP.FGC cells, serial 10x dilutions from 100 nM; read-out: AR DC50 (concentration needed for 50% AR degradation)
[5] = LNCaP.FGC cells, 100 nM, 24 hr, normalized to GAPDH, untreated cells = 100%

T1 sequence (P10275 whole entry T878A): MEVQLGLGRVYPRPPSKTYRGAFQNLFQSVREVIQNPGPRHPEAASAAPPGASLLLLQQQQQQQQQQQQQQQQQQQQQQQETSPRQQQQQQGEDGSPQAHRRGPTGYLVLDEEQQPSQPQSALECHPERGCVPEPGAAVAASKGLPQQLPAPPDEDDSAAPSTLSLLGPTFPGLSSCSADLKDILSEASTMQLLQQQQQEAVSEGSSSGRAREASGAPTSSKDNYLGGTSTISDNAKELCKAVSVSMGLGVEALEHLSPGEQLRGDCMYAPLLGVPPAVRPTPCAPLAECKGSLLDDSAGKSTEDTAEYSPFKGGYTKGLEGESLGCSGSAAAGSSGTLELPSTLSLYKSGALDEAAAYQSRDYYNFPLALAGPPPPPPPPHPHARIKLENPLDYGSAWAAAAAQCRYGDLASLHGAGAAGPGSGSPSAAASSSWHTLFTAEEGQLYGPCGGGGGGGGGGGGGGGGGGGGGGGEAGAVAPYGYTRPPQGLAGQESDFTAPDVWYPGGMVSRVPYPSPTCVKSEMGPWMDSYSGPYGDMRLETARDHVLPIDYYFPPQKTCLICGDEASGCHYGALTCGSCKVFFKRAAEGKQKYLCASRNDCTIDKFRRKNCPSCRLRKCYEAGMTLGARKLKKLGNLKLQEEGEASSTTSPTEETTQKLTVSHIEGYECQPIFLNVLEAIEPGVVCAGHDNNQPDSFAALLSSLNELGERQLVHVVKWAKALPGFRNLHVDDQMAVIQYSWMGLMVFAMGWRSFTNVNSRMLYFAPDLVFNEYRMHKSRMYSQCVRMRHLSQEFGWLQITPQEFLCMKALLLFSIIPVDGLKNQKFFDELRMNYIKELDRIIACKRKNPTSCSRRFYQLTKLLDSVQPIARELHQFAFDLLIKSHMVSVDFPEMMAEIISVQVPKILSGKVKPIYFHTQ
T1 sequence (Q96SW2 whole entry partner): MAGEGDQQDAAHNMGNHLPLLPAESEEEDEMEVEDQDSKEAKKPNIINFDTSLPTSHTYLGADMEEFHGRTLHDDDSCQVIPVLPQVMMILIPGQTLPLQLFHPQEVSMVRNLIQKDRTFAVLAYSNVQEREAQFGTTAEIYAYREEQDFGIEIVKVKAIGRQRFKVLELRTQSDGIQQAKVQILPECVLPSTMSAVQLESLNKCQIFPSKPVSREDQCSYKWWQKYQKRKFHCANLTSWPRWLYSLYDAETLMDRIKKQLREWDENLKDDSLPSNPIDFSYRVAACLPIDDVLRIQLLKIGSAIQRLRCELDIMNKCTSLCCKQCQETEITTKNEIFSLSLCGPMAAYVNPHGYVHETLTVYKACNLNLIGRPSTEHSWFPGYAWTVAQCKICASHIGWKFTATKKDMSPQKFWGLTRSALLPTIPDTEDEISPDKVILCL

remaining activity at 0.1 µM [3] | DC50 [4] | SMILES | remaining activity at 0.1 µM [1] | DC50 [2] | Androgen Receptor Remaining (%) [5]
 |  | CCn1c2c(c3ccc(OCCN4CCN(c5ccc(C(=O)N[C@H]6CC[C@H](N(C)c7ccc(C#N)c(Cl)c7)CC6)nn5)CC4)cc31)C(=O)N(C1CCC(=O)NC1=O)C2=O (stereo partly drawn) [Compound 79] | 60% |  | 
 |  | CCn1c2c(c3ccc(OCCN4CC5(CCN(c6ccc(C(=O)N[C@H]7CC[C@H](Oc8ccc(C#N)c(Cl)c8)CC7)nn6)CC5)C4)cc31)C(=O)N(C1CCC(=O)NC1=O)C2=O (stereo partly drawn) [Compound 80] | 22% | 10 to 25 nM | 
 |  | CCn1c2c(c3ccc(OCCN4CCC5(CC4)CN(c4ccc(C(=O)N[C@H]6CC[C@H](Oc7ccc(C#N)c(Cl)c7)CC6)nn4)C5)cc31)C(=O)N(C1CCC(=O)NC1=O)C2=O (stereo partly drawn) [Compound 81] | 9% | < 10 nM | 
 |  | N#Cc1ccc(O[C@H]2CC[C@H](NC(=O)c3ccc(N4CCN(CCCOc5ccc6c7c(n(CC(F)F)c6c5)C(=O)N(C5CCC(=O)NC5=O)C7=O)CC4)nn3)CC2)cc1Cl (stereo partly drawn) [Compound 82] | 35% | 25 to 100 nM | 
 |  | CN(c1ccc(C#N)c(Cl)c1)[C@H]1CC[C@H](NC(=O)c2ccc(N3CCN(CCCOc4ccc5c6c(n(CC(F)F)c5c4)C(=O)N(C4CCC(=O)NC4=O)C6=O)CC3)nn2)CC1 (stereo partly drawn) [Compound 83] | 41% | 10 to 25 nM | 
 |  | C[Si](C)(C)CCOCn1c2c(c3ccc(OCCCN4CCN(c5ccc(C(=O)N[C@H]6CC[C@H](Oc7ccc(C#N)c(Cl)c7)CC6)nn5)CC4)cc31)C(=O)N(C1CCC(=O)NC1=O)C2=O (stereo partly drawn) [Compound 84] | 62% |  | 
 |  | N#Cc1ccc(O[C@H]2CC[C@H](NC(=O)c3ccc(N4CCN(CCCOc5ccc6c7c(n(CO)c6c5)C(=O)N(C5CCC(=O)NC5=O)C7=O)CC4)nn3)CC2)cc1Cl (stereo partly drawn) [Compound 85] | 20% | 25 to 100 nM | 
20% | 25 to 100 nM | N#Cc1ccc(O[C@H]2CC[C@H](NC(=O)c3ccc(N4CCN(CCCOc5ccc6c7c([nH]c6c5)C(=O)N(C5CCC(=O)NC5=O)C7=O)CC4)nn3)CC2)cc1Cl (stereo partly drawn) [Compound 86] |  |  | 
21% | 25 to 100 nM | Cn1c2c(c3ccc(OCCCN4CCCN(c5ccc(C(=O)N[C@H]6CC[C@H](Oc7ccc(C#N)c(Cl)c7)CC6)nn5)CC4)cc31)C(=O)N(C1CCC(=O)NC1=O)C2=O (stereo partly drawn) [Compound 87] |  |  | 
10% | 10 to 25 nM | Cn1c2c(c3ccc(OCCN4CCC5(CC4)CN(c4ccc(C(=O)N[C@H]6CC[C@H](Oc7ccc(C#N)c(Cl)c7)CC6)nn4)C5)cc31)C(=O)N(C1CCC(=O)NC1=O)C2=O (stereo partly drawn) [Compound 88] |  |  | 
 |  | CCn1c2c(c3ccc(OCCCCN4CCN(c5ccc(C(=O)N[C@H]6CC[C@H](Oc7ccc(C#N)c(Cl)c7)CC6)nn5)CC4)cc31)C(=O)N(C1CCC(=O)NC1=O)C2=O (stereo partly drawn) [Compound 89] | 7% | < 10 nM | 
 |  | CCn1c2c(c3ccc(OCCCCN4CCCN(c5ccc(C(=O)N[C@H]6CC[C@H](Oc7ccc(C#N)c(Cl)c7)CC6)nn5)CC4)cc31)C(=O)N(C1CCC(=O)NC1=O)C2=O (stereo partly drawn) [Compound 90] | 28% | 25 to 100 nM | 
 |  | CCn1c2c(c3ccc(OCCCCN4CCN(c5ccc(C(=O)N[C@H]6CC[C@H](N(C)c7ccc(C#N)c(Cl)c7)CC6)nn5)CC4)cc31)C(=O)N(C1CCC(=O)NC1=O)C2=O (stereo partly drawn) [Compound 91] | 0% | 10 to 25 nM | 
6% | 25 to 100 nM | Cn1c2c(c3ccc(OCCCN4CCC5(CC4)CN(c4ccc(C(=O)N[C@H]6CC[C@H](Oc7ccc(C#N)c(Cl)c7)CC6)nn4)C5)cc31)C(=O)N(C1CCC(=O)NC1=O)C2=O (stereo partly drawn) [Compound 92] |  |  | 
 |  | C=Nc1ccc(O[C@H]2CC[C@H](NC(=O)c3ccc(N4CC5(CCN(CCCOc6ccc7c8c(n(CC(F)F)c7c6)C(=O)N(C6CCC(=O)NC6=O)C8=O)CC5)C4)nn3)CC2)cc1Cl (stereo partly drawn) [Compound 93] | 11% | 25 to 100 nM | 
 |  | CCn1c2c(c3ccc(OCCCN4CC5(CCN(c6ccc(C(=O)N[C@H]7CC[C@H](Oc8ccc(C#N)c(Cl)c8)CC7)nn6)CC5)C4)cc31)C(=O)N(C1CCC(=O)N(COCC[Si](C)(C)C)C1=O)C2=O (stereo partly drawn) [Compound 94] | 89% |  | 
 |  | CCn1c2c(c3ccc(OCCCN4CC5(CCN(c6ccc(C(=O)N[C@H]7CC[C@H](Oc8ccc(C#N)c(Cl)c8)CC7)nn6)CC5)C4)cc31)C(=O)N(C1CCC(=O)N(CO)C1=O)C2=O (stereo partly drawn) [Compound 95] | 1% | 10 to 25 nM | 
 |  | CCn1c2c(c3ccc(OCCCN4CC5(CCN(c6ccc(C(=O)N[C@H]7CC[C@H](Oc8ccc(C#N)c(Cl)c8)CC7)nn6)CC5)C4)cc31)C(=O)N(C1CCC(=O)NC1=O)C2=O (stereo partly drawn) [Compound 96] |  | 10 to 25 nM | 1%

remaining activity at 0.1 µM [3] | DC50 [4] | SMILES | remaining activity at 0.1 µM [1] | DC50 [2] | Androgen Receptor Remaining (%) [5]
 |  | CCn1c2c(c3ccc(OCCCN4CCN(c5ccc(C(=O)N[C@H]6CC[C@H](Oc7ccc(C#N)c(Cl)c7)CC6)nn5)[C@H](C)C4)cc31)C(=O)N(C1CCC(=O)NC1=O)C2=O (stereo partly drawn) [Compound 98] | 26% | 25 to 100 nM | 
 |  | CCn1c2c(c3ccc(OCCN4CCN(c5ccc(C(=O)N[C@H]6CC[C@H](Oc7ccc(C#N)c(Cl)c7)CC6)nn5)[C@H](C)C4)cc31)C(=O)N(C1CCC(=O)NC1=O)C2=O (stereo partly drawn) [Compound 99] | 39% | 25 to 100 nM | 
 |  | CCn1c2c(c3ccc(OCCCCN4C5CCC4CN(c4ccc(C(=O)N[C@H]6CC[C@H](Oc7ccc(C#N)c(Cl)c7)CC6)nn4)C5)cc31)C(=O)N(C1CCC(=O)NC1=O)C2=O (stereo partly drawn) [Compound 100] | 44% | 25 to 100 nM | 
 |  | N#Cc1ccc(O[C@H]2CC[C@H](NC(=O)c3ccc(N4CC5(CCN(CCOc6ccc7c8c(n(CC(F)F)c7c6)C(=O)N(C6CCC(=O)NC6=O)C8=O)CC5)C4)nn3)CC2)cc1Cl (stereo partly drawn) [Compound 103] | 52% |  | 
 |  | CN(c1ccc(C#N)c(Cl)c1)[C@H]1CC[C@H](NC(=O)c2ccc(N3CCN(CCOc4ccc5c6c(n(CC(F)F)c5c4)C(=O)N(C4CCC(=O)NC4=O)C6=O)CC3)nn2)CC1 (stereo partly drawn) [Compound 104] | 42% | 25 to 100 nM | 
 |  | N#Cc1ccc(O[C@H]2CC[C@H](NC(=O)c3ccc(N4CCN(CCOc5ccc6c7c(n(CC(F)F)c6c5)C(=O)N(C5CCC(=O)NC5=O)C7=O)CC4)nn3)CC2)cc1Cl (stereo partly drawn) [Compound 105] | 42% | 25 to 100 nM | 
 |  | CCn1c2c(c3ccc(OCCN4CCC5(CC4)CN(c4ccc(C(=O)N[C@H]6CC[C@H](N(C)c7ccc(C#N)c(Cl)c7)CC6)nn4)C5)cc31)C(=O)N(C1CCC(=O)NC1=O)C2=O (stereo partly drawn) [Compound 106] | 119% |  | 
 |  | CCn1c2c(c3ccc(OCCCN4CCC5(CC4)CN(c4ccc(C(=O)N[C@H]6CC[C@H](N(C)c7ccc(C#N)c(Cl)c7)CC6)nn4)C5)cc31)C(=O)N(C1CCC(=O)NC1=O)C2=O (stereo partly drawn) [Compound 107] | 15% |  | 
 |  | CN(c1ccc(C#N)c(Cl)c1)[C@H]1CC[C@H](NC(=O)c2ccc(N3CC4(CCN(CCOc5ccc6c7c(n(CC(F)F)c6c5)C(=O)N(C5CCC(=O)NC5=O)C7=O)CC4)C3)nn2)CC1 (stereo partly drawn) [Compound 108] | 19% |  | 
 |  | CCn1c2c(c3ccc(OCCN4CCCN(c5ccc(C(=O)N[C@H]6CC[C@H](N(C)c7ccc(C#N)c(Cl)c7)CC6)nn5)CC4)cc31)C(=O)N(C1CCC(=O)NC1=O)C2=O (stereo partly drawn) [Compound 110] | 34% | 10 to 25 nM | 
 |  | CCn1c2c(c3ccc(OCCCCN4CCCN(c5ccc(C(=O)N[C@H]6CC[C@H](N(C)c7ccc(C#N)c(Cl)c7)CC6)nn5)CC4)cc31)C(=O)N(C1CCC(=O)NC1=O)C2=O (stereo partly drawn) [Compound 112] | 32% | 10 to 25 nM | 
 |  | CCn1c2c(c3ccc(OCCOCCN4CCN(c5ccc(C(=O)N[C@H]6CC[C@H](Oc7ccc(C#N)c(Cl)c7)CC6)nn5)CC4)cc31)C(=O)N(C1CCC(=O)NC1=O)C2=O (stereo partly drawn) [Compound 113] | 26% | 10 to 25 nM | 
 |  | CCn1c2c(c3ccc(OCCOCCN4CCN(c5ccc(C(=O)N[C@H]6CC[C@H](N(C)c7ccc(C#N)c(Cl)c7)CC6)nn5)CC4)cc31)C(=O)N(C1CCC(=O)NC1=O)C2=O (stereo partly drawn) [Compound 114] | 21% | 10 to 25 nM | 
 |  | CCn1c2c(c3ccc(OCCOCCN4CCN(c5ccc(C(=O)N[C@H]6CC[C@H](Oc7ccc(C#N)c(Cl)c7)CC6)nn5)CC4)cc31)C(=O)N(C1CCC(=O)NC1=O)C2=O (stereo partly drawn) [Compound 115] |  | 25 to 100 nM | 26%
 |  | CCn1c2c(c3ccc(OCCCCCN4CCN(c5ccc(C(=O)N[C@H]6CC[C@H](N(C)c7ccc(C#N)c(Cl)c7)CC6)nn5)CC4)cc31)C(=O)N(C1CCC(=O)NC1=O)C2=O (stereo partly drawn) [Compound 116] | 37% | 25 to 100 nM | 
 |  | CCn1c2c(c3ccc(OCCCN4CCN(c5ccc(N6C(=S)N(c7ccc(C#N)c(C(F)(F)F)c7)C(=O)C6(C)C)cc5)CC4)cc31)C(=O)N(C1CCC(=O)NC1=O)C2=O (stereo not drawn) [Compound 117] | 56% |  | 
 |  | CCn1c2c(c3ccc(OCCN4CCN(c5ccc(N6C(=S)N(c7ccc(C#N)c(C(F)(F)F)c7)C(=O)C6(C)C)cc5)CC4)cc31)C(=O)N(C1CCC(=O)NC1=O)C2=O (stereo not drawn) [Compound 118] | 80% |  | 
 |  | CCn1c2c(c3ccc(OCC(=O)N4CCN(c5ccc(C(=O)N[C@H]6CC[C@H](Oc7ccc(C#N)c(Cl)c7)CC6)nn5)CC4)cc31)C(=O)N(C1CCC(=O)N(CO)C1=O)C2=O (stereo partly drawn) [Compound 120] | 48% | 25 to 100 nM | 
